Results taken from patent US11530181B2, “IL-6 inhibitors and methods of treatment” (University of Florida Research Foundation, Incorporated, priority 2018, dated 2022).

Tests used:
[1] = tested on: STAT3 phosphorylation in SUM159 cells; assay: Western blot, STAT3 phosphorylation in SUM159 (IL-6 autocrine); format: cell-based, human; conditions: SUM159, 1-4 μM, 16 h
Procedure: (§1) Cells were harvested and lysed in cold radioimmunoprecipitation assay (RIPA) lysis buffer containing proteasome inhibitor cocktail and phosphatase inhibitor cocktail. The protein concentrations were determined using the BCA Protein Assay kit. After adding the loading buffer and boiling at 95° C. for 10 minutes, equivalent amounts of proteins were loaded on and separated by SDS-PAGE, and then were transferred to PVDF membranes. Membranes were probed with primary antibodies (1:1000) against phospho-STAT3 (Tyr705), STAT3, phospho-STAT1 (Tyr701), STAT1, phospho-STAT6 (Tyr 641), STAT6, and GAPDH, respectively, and horseradish peroxidase (HRP)-conjugated secondary antibody (1:10000) (Cell Signaling Technology, Beverly, Mass.). Membranes were analyzed using Enhanced Chemiluminescence Plus reagents and either scanned with the Storm Scanner (Amersham Pharmacia Biotech, Inc., Piscataway, N.J.) or imaged with ChemiDoc MP imaging system (Bio-Rad, Hercules, Calif.). […] The cells were harvested after 30 minutes and analyzed by Western blot.
(§2) BxPC-3 and SUM159 cells were seeded in 10 cm plates (1 million cells per plate) and allowed to adhere overnight. […] Then cells were harvested and analyzed by western blotting.
SUM159 cells were seeded in 10 cm plates (1 million cells per plate) and allowed to adhere overnight. […] Then cells were harvested and analyzed by western blotting.

[2] = biological target: T1, gp130 (Homo sapiens, UniProt P40189); assay: Drug Affinity Responsive Target Stability (DARTS) assay in SUM159 lysates; format: binding
T1 construct: endogenous in cells; host or cells: SUM159 human breast cancer cells (lysate)
T1 sequence (P40189 23-918): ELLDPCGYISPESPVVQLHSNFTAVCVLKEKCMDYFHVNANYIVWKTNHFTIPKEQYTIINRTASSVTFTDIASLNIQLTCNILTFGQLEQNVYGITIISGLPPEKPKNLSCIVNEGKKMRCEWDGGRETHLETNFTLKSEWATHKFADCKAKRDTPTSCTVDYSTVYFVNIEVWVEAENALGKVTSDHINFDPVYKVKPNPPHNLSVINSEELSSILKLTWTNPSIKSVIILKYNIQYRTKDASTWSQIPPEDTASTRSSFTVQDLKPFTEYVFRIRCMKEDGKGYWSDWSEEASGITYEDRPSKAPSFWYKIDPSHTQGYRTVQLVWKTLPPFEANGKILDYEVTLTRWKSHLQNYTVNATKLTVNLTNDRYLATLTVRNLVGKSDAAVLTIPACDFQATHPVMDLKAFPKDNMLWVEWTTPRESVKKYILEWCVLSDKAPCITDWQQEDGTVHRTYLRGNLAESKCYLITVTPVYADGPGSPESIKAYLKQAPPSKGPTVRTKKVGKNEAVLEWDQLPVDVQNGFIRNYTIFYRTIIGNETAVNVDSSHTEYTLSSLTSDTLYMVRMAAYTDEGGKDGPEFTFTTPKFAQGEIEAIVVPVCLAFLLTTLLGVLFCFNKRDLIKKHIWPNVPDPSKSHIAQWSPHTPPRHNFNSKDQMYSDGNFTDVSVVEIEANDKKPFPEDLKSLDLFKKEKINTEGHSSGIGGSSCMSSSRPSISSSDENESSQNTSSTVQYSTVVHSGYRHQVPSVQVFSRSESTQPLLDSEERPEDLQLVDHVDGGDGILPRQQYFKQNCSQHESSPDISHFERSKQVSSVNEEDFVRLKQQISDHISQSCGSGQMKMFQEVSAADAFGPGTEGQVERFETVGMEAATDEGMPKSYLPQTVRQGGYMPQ
Procedure: Human SUM159 breast cancer cells were lysed in cold radioimmunoprecipitation assay (RIPA) lysis buffer containing proteasome inhibitor cocktail and phosphatase inhibitor cocktail. Then lysates were incubated with escalating concentrations (10-1000 μM) of LLM418 or DMSO control at room temperature for 1 h. Proteolysis was followed by adding protease pronase solution at a ratio of 1 mg of pronase to 1000 mg (or 2000 mg) of lysate protein for 30 min, 20 min or 15 min at room temperature. To stop proteolysis, 4×SDS sample loading buffer was added at 1:3 ratio to each sample and boiled at 95° C. for 10 min. The resulted protein samples were separated by 8% SDS-PAGE gel and analyzed by western blotting. The DARTS assay is a method for studying the specific protein-ligand binding interactions. It is based on the principle that the target protein structure might be stabilized and become less susceptible to proteolysis by proteases upon drug binding [Lomenick B, Jung G, Wohlschlegel J, et al. Target identification using drug affinity responsive target stability (DARTS). Curr Protoc Chem Biol 2011, 3, 163-180; Lomenick B, Olsen R, Huang J. Identification of direct protein targets of small molecules. ACS Chem Biol. 2011, 6, 34-46]. It can be used to find the targeting protein of a small molecule by running SDS-gel without purifying any specific protein. […]

[3] = tested on: STAT2 phosphorylation; assay: Western blot, STAT2 phosphorylation in MCF7; format: cell-based, human; conditions: MCF7, pre-treatment 2, 3 and 4 hours
Procedure: (§3) FIG. 13. depicts the reduced effect on STAT1, STAT2, STAT4 and STAT6 phosphorylation by LLM418. The MCF7 cells were serum-starved overnight, then treated with LLM4 (15 μM) for 2, 3 and 4 hours. STAT1, STAT2, STAT4 and STAT6 phosphorylation were induced by INF-γ, INF-α and IL-4, respectively. The cells were harvested at 30 minutes and analyzed by western blot assays.
as §1

[4] = tested on: STAT4 phosphorylation; assay: Western blot, STAT4 phosphorylation in MCF7; format: cell-based, human; conditions: MCF7, pre-treatment 2, 3 and 4 hours
Procedure: as §3, §1

[5] = tested on: STAT3 phosphorylation in BxPC-3 cells; assay: Western blot, STAT3 phosphorylation in BxPC-3 (IL-6 autocrine); format: cell-based, human
Procedure: as §1, with “Calif.). For cytokine induction of STAT3 phosphorylation, MCF-7 breast cancer cells were seeded in 10 cm plates (1 million cells per plate) and allowed to adhere overnight followed by serum-starvation.” for “Calif.).”
as §2

[6] = tested on: CNTF induced STAT3 phosphorylation; assay: Western blot, CNTF induced STAT3 phosphorylation in MCF7; format: cell-based, human; conditions: MCF7, 15 μM, 2, 3 and 4 hours
Procedure: as §1
(§4) MCF7 breast cancer cells were seeded in 10 cm plates (1 million cells per plate) and allowed to adhere overnight. […] The cells were harvested after 30 minutes and analyzed by western blotting.

[7] = tested on: CT-1 induced STAT3 phosphorylation; assay: Western blot, CT-1 induced STAT3 phosphorylation in MCF7; format: cell-based, human; conditions: MCF7, 15 μM, time dependent
Procedure: as §1, §4

Compound | inhibition of STAT3 phosphorylation [1] | abundance of gp130 compared with the no drug control ([2]; 100 and 1000 μM) | abundance of the gp130 band (protection from proteolysis) ([2]; SUM159 lysates, 10-1000 μM, pronase:protein=1:2000, 15 min) | effect on STAT2 phosphorylation [3] | effect on STAT4 phosphorylation [4] | inhibition of STAT3 phosphorylation ([5]; BxPC-3, 20 μM) | inhibition of STAT3 phosphorylation ([5]; BxPC-3, 5-20 μM, 16 h) | CNTF induced STAT3 phosphorylation [6] | CT-1 induced STAT3 phosphorylation [7]
O=C(Nc1cccc(OCCN2CCCCC2)c1)Nc1cccc(-c2ccn[nH]2)c1 [LLM414, 1-(3-(1H-pyrazol-5-yl)phenyl)-3-(3-(2-(piperidin-1-yl)ethoxy)phenyl)urea] | inhibited STAT3 phosphorylation in SUM159 cells | – | – | – | – | – | – | – | –
O=C(Nc1ccccc1-c1ccn[nH]1)c1ccc(OCCN2CCCCC2)cc1 [LLM418, N-(2-(1H-pyrazol-5-yl)phenyl)-4-(2-(piperidin-1-yl)ethoxy)benzamide] | stronger inhibition than LLM414 | increased significantly | increased with an increasing dose | little effect | little effect | – | – | – | –
O=C(Nc1cc(F)ccc1-n1cccc1)c1ccc(OCCCN2CCCCC2)cc1 [LLM4, N-(5-fluoro-2-(1H-pyrrol-1-yl)phenyl)-4-(3-(piperidin-1-yl)propoxy)benzamide] | – | – | – | – | – | almost complete inhibition | inhibited STAT3 phosphorylation in BxPC-3 cells in a dose dependent manner | remain intact | minor influence
